Strand notation (5' to 3'): a small letter for the sugar, then the base; units joined by * are phosphorothioate-linked, units joined directly phosphodiester-linked; [ ] holds rarer units or linkages, { } end groups; capitals alone tell only the bases. e = 2'-O-(2-methoxyethyl) (MOE); [5mC] = 5-methylcytosine; d = 2'-deoxy (DNA)
Legend:
[1] = set-up: species or system Sprague-Dawley rats; settings: rat, in vivo, sc, 20 mg/kg
Method: The concentration of the full-length oligonucleotide as well as the total oligonucleotide concentration (including the degraded form) was measured. The method used is a modification of previously published methods (Leeds et al., 1996; Geary et al., 1999) which consist of a phenol-chloroform (liquid-liquid) extraction followed by a solid phase extraction. An internal standard (ISIS 355868, a 27-mer 2′-O-methoxyethyl modified phosphorothioate oligonucleotide, […], designated herein as SEQ ID NO: 270) was added prior to extraction. […] The results are presented in Tables 91 and 92, expressed as μg/g liver or kidney tissue. Half-lives were then calculated using WinNonlin software ([…]).

[2] = set-up: species or system CD1 mice; settings: mouse, in vivo, sc, 50 mg/kg
Method: The concentration of the full-length oligonucleotide was measured. The method used is a modification of previously published methods (Leeds et al., 1996; Geary et al., 1999) which consist of a phenol-chloroform (liquid-liquid) extraction followed by a solid phase extraction. An internal standard (ISIS 355868, a 27-mer 2′-O-methoxyethyl modified phosphorothioate oligonucleotide, […], designated herein as SEQ ID NO: 270) was added prior to extraction. […] The results are presented in Table 85 expressed as μg/g liver tissue.

[3] = tested on: human Factor 11 mRNA; experiment: Dose-dependent inhibition of human Factor 11 in HepG2 cells, electroporation 123.46-10,000 nM (Example 31); assay type: cell-based
How it was run: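 HepG2 cells were electroporated with antisense oligonucleotide at 123.46, 370.37, 1,111.11, 3,333.33 and 10,000 nM and harvested about 16 hours later. Factor 11 mRNA was quantified by qRT-PCR and normalised to total RNA (RIBOGREEN). Inhibition is expressed relative to untreated cells.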

[4] = Tolerability in Sprague-Dawley rats: body weight and organ weight (Example 44); assay type: in vivo; settings: 50 mg/kg s.c. twice per week for 6 weeks; for Change in Kidney weight / Change in Liver weight / Change in Spleen weight: end of study
[5] = Tolerability in Sprague-Dawley rats: kidney function (Example 44); assay type: in vivo; settings: 50 mg/kg s.c. twice per week for 6 weeks; for BUN / Creatinine: plasma
[6] = Tolerability in CD1 mice: body weight and organ weight (Example 43); assay type: in vivo; settings: 50 mg/kg s.c. twice per week for 6 weeks, at the end of the study
From the text: The body weights of the mice taken at the end of the study are presented in Table 104 and are expressed in grams.

Row | Substance | Half-life of ISIS oligonucleotides in the liver and kidney [1] | Half-Life in the liver [2] | Percent inhibition of Factor 11 mRNA at 123.47 nM ([3]; electroporation, 123.47 nM, approx. 16 hours, relative to untreated control cells) | Percent inhibition of Factor 11 mRNA at 370.37 nM ([3]; electroporation, 370.37 nM, approx. 16 hours, relative to untreated control cells) | Percent inhibition of Factor 11 mRNA at 1,111.11 nM ([3]; electroporation, 1,111.11 nM, approx. 16 hours, relative to untreated control cells) | Percent inhibition of Factor 11 mRNA at 3,333.33 nM ([3]; electroporation, 3,333.33 nM, approx. 16 hours, relative to untreated control cells) | Percent inhibition of Factor 11 mRNA at 10,000.0 nM ([3]; electroporation, 10,000.0 nM, approx. 16 hours, relative to untreated control cells) | IC50 ([3]; electroporation, Factor 11 mRNA expression) | body weight [4] | Change in Kidney weight [4] | Change in Liver weight [4] | Change in Spleen weight [4] | BUN [5] | Creatinine [5] | Urine protein/creatinine ratio [5] | body weight [6]
1 | 412223 (antisense ACAGTTTCTGGCAGGCCTCG; 5-10-5 MOE gapmer, further chemistry not given here) [compound 412223] | 22 days | 21.9 days | – | – | – | – | – | – | – | – | – | – | – | – | – | –
2 | 412224 (antisense GCATTGGTGCACAGTTTCTG; 5-10-5 MOE gapmer, further chemistry not given here) [compound 412224] | 17 days | 16.6 days | – | – | – | – | – | – | – | – | – | – | – | – | – | –
3 | 412225 (antisense GCAGCGGACGGCATTGGTGC; 5-10-5 MOE gapmer, further chemistry not given here) [compound 412225] | 21 days | 20.7 days | – | – | – | – | – | – | – | – | – | – | – | – | – | –
4 | 413482 (antisense GGACGGCATTGGTGCACAGT; 5-10-5 MOE gapmer, further chemistry not given here) [compound 413482] | 20 days | 19.5 days | – | – | – | – | – | – | – | – | – | – | – | – | – | –
5 | 416856 (antisense GGCATTGGTGCACAGTTTCT; 5-10-5 gapmer, further chemistry not given here) [compound 416856] | 19 days | 19.2 days | 12% | 23% | 35% | 59% | 83% | 1600 nM | – | – | – | – | – | – | – | –
6 | ISIS 449707: 3-8-3, 4-8-4, 2-10-2, 3-10-3 or 4-10-4 MOE microwalk gapmer (Table 46) (antisense e[5mC]*eA*e[5mC]*eA*dG*dT*dT*dT*d[5mC]*dT*dG*dG*e[5mC]*eA*eG*eG) | – | – | – | – | – | – | – | – | 352 g | +80% | +41% | +400% | 24 mg/dL | 0.4 mg/dL | 3.2 | 42 g
7 | ISIS 449708: 3-8-3, 4-8-4, 2-10-2, 3-10-3 or 4-10-4 MOE microwalk gapmer (Table 46) (antisense eA*e[5mC]*eA*dG*dT*dT*dT*d[5mC]*dT*dG*dG*e[5mC]*eA*eG) | – | – | – | – | – | – | – | – | 382 g | +40% | +31% | +259% | 24 mg/dL | 0.4 mg/dL | 5.7 | 40 g
8 | ISIS 449709: 3-8-3, 4-8-4, 2-10-2, 3-10-3 or 4-10-4 MOE microwalk gapmer (Table 46) (antisense eG*e[5mC]*eA*e[5mC]*dA*dG*dT*dT*dT*d[5mC]*dT*dG*dG*d[5mC]*eA*eG*eG*e[5mC]) | – | – | – | – | – | – | – | – | 376 g | +19% | +8% | +231% | 24 mg/dL | 0.4 mg/dL | 3.4 | 40 g
9 | ISIS 449710: 3-8-3, 4-8-4, 2-10-2, 3-10-3 or 4-10-4 MOE microwalk gapmer (Table 46) (antisense e[5mC]*eA*e[5mC]*dA*dG*dT*dT*dT*d[5mC]*dT*dG*dG*d[5mC]*eA*eG*eG) | – | – | – | – | – | – | – | – | 344 g | +50% | +82% | +302% | 29 mg/dL | 0.3 mg/dL | 5.9 | 42 g
10 | ISIS 449711: 3-8-3, 4-8-4, 2-10-2, 3-10-3 or 4-10-4 MOE microwalk gapmer (Table 46) (antisense eA*e[5mC]*dA*dG*dT*dT*dT*d[5mC]*dT*dG*dG*d[5mC]*eA*eG) | – | – | – | – | – | – | – | – | 362 g | +72% | +52% | +327% | 28 mg/dL | 0.4 mg/dL | 7.3 | 42 g

Source: patent US20230263822A1, “MODULATION OF FACTOR 11 EXPRESSION” (Ionis Pharmaceuticals, Inc., priority 2008, published 2023)
